Experimental data: patent US20220322803A1 (KONKUK UNIVERSITY INDUSTRIAL COOPERATION CORP, priority 2019, published 2022)

Assays:
[1] = Straight perm of curly hair; details: second agent (gel with 0.5% xanthan gum for the waters) oxidized 10 minutes
Method: The first agent used in straight perm was Standard of Hair […] Two Way Straight (UCL, Incheon). The second agent used in the perm was a mixture of Standard of Hair […] Two Way Straight (UCL, Incheon) and xanthan gum in each hydrogen water and electrolyzed water. Tap water was used to generate the used electrolyzed hydrogen water and electrolyzed water. […] To each of these, xanthan gum was added to 0.5% and mixed to form a gel. The perm process proceeded as follows. The first agent was applied to the hair and softened at 37° C. for 30 minutes. […] After the oxidation process was completed, the hair was washed, photographed, and measured.

[2] = Perm of brown hair, hydrogen water vs hydrogen peroxide as second agent; details: 30 washes, hydrogen water 10 times at 2-minute intervals, hydrogen peroxide left 10 minutes
Method: According to the method used in a general beauty salon using a rod, cysteine treatment as a reduction agent, intermediate washing, setting, oxidation agent treatment, and measurement after washing were performed in the order. Brown hair was treated with a reduction agent (Hair 119 Clinic SuBoon Perm, Eson Chemical, Korea) and left at 37° C. for 5 minutes. […] Then the hair was separated. After washing them once, the length of perm hair was measured. After that, the perm hair length was measured when repeatedly washed 30 times, once a day (FIG. 3C). Natural Shampoo (Repit, Korea) was used as a cleaning agent. A method of preparing hydrogen water is as follows. After adding NaCl to distilled water to prepare a 0.05% NaCl solution, salted distilled water was boiled for about 5 minutes to remove dissolved oxygen as much as possible, and then quenched to 25° C. (water cooling).

[3] = Cold perm with 25°C electrolyzed water sprayed as second agent; details: hydrogen peroxide as second agent; basis of commercial suitability; hair 27 cm

- split ends / hair surface (bleached, dyed hair after perm): had split ends
Compound: OO [hydrogen peroxide]
- result of straight perm treatment [1]: curly hair was well straightened
- dye eluted (washing once after the perm treatment, from L value): 11.43%
- sagging of wave [2]: sagging was seen in 30 washes
- length of the perm hair after washing once [3]: about 22 cm
